Reference: ChEMBL document CHEMBL3507680, “University of Dundee, Gates Library screen for HepG2 cell viability”

Assay: Human HepG2 cell viability assay in 384 well format
Assay type: toxicity, cell-based
Set-up: dose 125 nL, time 70.5 hour; concentration not given beside the values
Conditions: HepG2 cells, read-out: Inhibition

| Structure (SMILES) | cytotoxicity at 70.5 h [%] |
| --- | --- |
| CCc1c(C)nn2c(O)cc(C3CCN(C(=O)c4cnn(C)c4)C3)nc12 (stereo unspecified) | -0.531 |
| Cc1ccc(-c2noc(CN3CC(n4cc(C)cn4)C3)n2)cc1 | -0.527 |
| OCC1CCCCN1CCCNCc1cc(O)c2cc(F)ccc2n1 (stereo unspecified) | -4.1 |
| CC1(C)C(C(=O)NCCC2CN(Cc3c[nH]cn3)CCO2)C1(C)C (stereo unspecified) | -13.9 |
| Cn1ccc(-c2cc(C(=O)N3CCCCC3)c3ccccn23)n1 | 4.75 |
| CN(C)CCN(C)C[C@@H]1CN(C(=O)NC2CCCC2)C[C@@H]1CO | -8.45 |
| Cn1c(=O)c2cc(C(=O)NCc3ccncc3)ccc2n(C)c1=O | 2.17 |
| Cn1cc(C(=O)NCc2cn3c(n2)CN(CC2CCOCC2)CC3)cn1 | -1.1 |
| COCc1noc(-c2nn(-c3ccc(F)cc3)c3c2CCC3)n1 | -8.74 |
| COCCN(Cc1ccccn1)C(=O)CC1OCCc2sccc21 (stereo unspecified) | -9.62 |
| CCc1c(C)sc(NC(=O)CN2CCN(CC)CC2)c1C(=O)OC | -2.99 |
| COc1coc(CN2CCCC(CCc3ccccc3F)C2)cc1=O (stereo unspecified) | 16.9 |
| Cc1nc(C)n(CC2CN(c3ncccc3C#N)CCO2)n1 (stereo unspecified) | -0.989 |
| COc1cc(CN2CCCC2c2cccc(F)c2)cc(OC)c1OC (stereo unspecified) | -11.4 |
| NC(=O)c1cccc(CC2CCN(C(=O)Cn3cnnn3)C2)c1 (stereo unspecified) | -10.5 |
| COc1ccc(C2CC(=O)Oc3cc(C)[nH]c(=O)c32)cc1 (stereo unspecified) | -2.66 |
| CCN1CCCCC1C(=O)Nc1cccc(-c2nnc[nH]2)c1 (stereo unspecified) | -0.846 |
| Cc1nc(CN2CCc3ncnc(C)c3CC2)cs1 | -6.23 |
| COC(=O)c1ccc(N2CCN(CC(=O)NC(N)=O)C(C)C2)cc1 (stereo unspecified) | -3.82 |
| CN(Cc1cccnc1)C[C@@H]1OC[C@H]2CN(Cc3ccoc3)CC[C@H]21 | -0.956 |
| Oc1ccc(-c2c(-c3ccccc3)ncn2C[C@H]2CCCN2)cc1 | -2.17 |

| Structure (SMILES) | cytotoxicity at 70.5 h [%] |
| --- | --- |
| CCc1cc(NCCc2ccc(O)cc2)n2nccc2n1 | 2.9 |
| CCc1cc(N(C)CCc2c(C)n[nH]c2C)ncn1 | 26.8 |
| CCCn1nnnc1CSCc1cn2c(C)cccc2n1 | -12.9 |
| CCn1ncnc1CN1CCC(CNC(=O)c2cccc(C)n2)C1 (stereo unspecified) | -5.47 |
| CC(=O)NCc1ccc(C(=O)N2CCCC2c2cnn(C)c2)o1 (stereo unspecified) | -13.1 |
| CCc1noc(CN2CCN(CC(O)c3ccccc3)CC2)n1 (stereo unspecified) | -3.73 |
| CCc1nc(CN2CCN(C(=O)COCc3ccccc3)CC2)no1 | -7.36 |
| CC(=O)N1CCC(C(=O)NCCN2CCCCC2)CC1 | -0.67 |
| Cn1c(C(=O)N2CCc3[nH]cnc3C2C(=O)O)ccc1-c1ccccc1 (stereo unspecified) | -2.27 |
| COCCN1CCC2(CC1)CC(NCc1cncn1C)c1ccccc12 (stereo unspecified) | 1.8 |
| CCSCc1cccc(NCc2cccnc2)c1 | -14.7 |
| Cc1n[nH]c(C2CN(Cc3ncc(C(C)C)o3)CCO2)n1 (stereo unspecified) | 0.362 |
| CCCc1nc(N(C)CCN2CCCCCC2)c2cnn(C)c2n1 | -11 |
| CN1C(=O)C[C@@H]2[C@@H]1CCN2C(=O)c1ccc[nH]1 | -2.89 |
| Cc1cccc(CNC(C)c2ccc(OCC(=O)NC3CC3)cc2)c1 (stereo unspecified) | -0.442 |
| Cc1ccc(CC(NC(=O)CN(C)C2CC2)c2ccccn2)cc1 (stereo unspecified) | -1.04 |
| Cc1ccccc1-c1cncc(C2CCN(C(C)C)CC2)n1 | -22.4 |
| COc1cc(CNCCn2cccn2)c2c(c1)CC(C)O2 (stereo unspecified) | 7.89 |
| NCc1cn(-c2ccccc2C(=O)NCc2ccccc2Cl)cn1 | -8.27 |
| CC(=O)N1CCC(NC(=O)N(C)Cc2c(C)noc2C)CC1 | -8.21 |
| Cc1ncc(CNC(=O)CCc2c(C)noc2C)c(C2CCCN2C)n1 (stereo unspecified) | -3.48 |

| Structure (SMILES) | cytotoxicity at 70.5 h [%] |
| --- | --- |
| COc1ccc(CC2(C(=O)O)CCN(c3nc(C)ncc3C)CC2)cc1 | -10.8 |
| O=C(O)c1ccccc1-n1cnc(CN2CCCc3ccccc32)c1 | -2.75 |
| C=C(C)COc1ccccc1CN1CCC(C(=O)NCC)C1 (stereo unspecified) | -7.01 |
| CN(C)C(=O)N1CCO[C@@H]2CC(COCc3cccnc3)C[C@H]21 (stereo partly specified) | -1.44 |
| O=C1c2cnc(N3CCC(O)CC3)nc2CN1Cc1cccc(F)c1 | 22 |
| F[C@@H]1CN(C2CCC2)C[C@@H]1OCc1nc2ncccc2[nH]1 | 15.4 |
| OCCOc1ccc(NCc2cccc3cn[nH]c23)cn1 | 0.12 |
| CCN(C(=O)C(C)S(=O)(=O)Cc1nc(C)no1)c1ccccc1 (stereo unspecified) | -96.7 |
| Cc1ccc(CC(=O)N2CCOC(c3nc(C(C)(C)C)n[nH]3)C2)cn1 (stereo unspecified) | -4.13 |
| O=C1NC2(CCN(C(=O)c3ccc(Cl)cn3)CC2)CC1c1ccccc1 (stereo unspecified) | 8.76 |
| O=C(NCc1cn2cccnc2n1)C1CC(=O)N(Cc2cccnc2)C1 (stereo unspecified) | 2.43 |
| Cc1cc(CNc2cncc(C(=O)N(C)C)n2)c2[nH]c(C)c(C)c2c1 | 27.8 |
| O=C(c1ccc(Cl)cc1)N1CCC(N2CCCNC2=O)CC1 | -6.78 |
| CN(C)S(=O)(=O)N(C)C(c1cccnc1)c1ccc(F)c(F)c1 (stereo unspecified) | 14.4 |
| COCCNC(=O)Nc1ccc(-n2cncn2)c(C(F)(F)F)c1 | -3.51 |
| Cc1ncc(CO)c(CN2CCCC2c2nc3c(C)cccc3[nH]2)c1O (stereo unspecified) | -0.268 |
| COc1ccc(OC)c(C(C(=O)O)N2CCSCC2)c1 (stereo unspecified) | -4.28 |
| COc1ncccc1CNCc1c(C(C)C)nn(C)c1OC | -4.91 |
| Cc1c(Br)c(C(F)(F)F)nn1C(C)C(=O)O (stereo unspecified) | -11.2 |
| Cc1cc(C)n(CCC(=O)OCC(=O)N2CCc3sccc3C2)n1 | -4.48 |
| c1cnc(Nc2cc(CCC3CCNCC3)ccn2)cn1 | 5.45 |

| Structure (SMILES) | cytotoxicity at 70.5 h [%] |
| --- | --- |
| COc1c(CNCc2cccnc2OC(C)C)c(C(C)C)nn1C | -8.38 |
| CC(C)n1cc(-c2nc3cc(S(=O)(=O)N4CCCC4)ccc3n2C)cn1 | -25.1 |
| COCC(=O)N1CCN(C)c2ncccc2C1 | -0.482 |
| COc1ccc2cc(C(=O)NCCc3nc(C)no3)[nH]c2c1 | 5.04 |
| CCOC(=O)C1CCN(C(=O)c2cc(Br)ccc2-n2cnnn2)CC1 | -6.49 |
| COCCCNS(=O)(=O)c1ccc2c(c1)NC(=O)C(C)O2 (stereo unspecified) | 1.94 |
| Cc1cnc(CN2CCN(C(C)c3nc(C4CC4)no3)CC2)cn1 (stereo unspecified) | -6.13 |
| CC(C)c1nc(C2CCCN(C(=O)CCn3ccnc3)C2)no1 (stereo unspecified) | 13.6 |
| COCCN(C)C[C@@H]1CN(C(=O)c2ccc(C)c(Cl)c2)C[C@@H]1CO | 1.13 |
| c1cnn(-c2ccc(CN3CCCC(Cn4cncn4)C3)cc2)c1 (stereo unspecified) | -1.71 |
| CS(=O)(=O)CCNC(=O)N1CC2(CCCC2)c2ccccc21 | 0.304 |
| CCc1nc(C2CCCN2c2ncc(C(N)=O)cc2Cl)no1 (stereo unspecified) | 3.61 |
| O=S(=O)(c1cc(F)ccc1F)N1CCCC1c1ccco1 (stereo unspecified) | -6.01 |
| O=C(Cc1ccsc1)N1CCCC2(COCCN(CC3CC3)C2)C1 (stereo unspecified) | 1.23 |
| COc1ncccc1CN1CC[C@H]2O[C@@H](c3nnc(C)o3)CC[C@H]21 | -6.07 |
| CC(C)n1ncc2c1NC(=O)CC21C(=O)Nc2c(Cl)ccc(Cl)c21 (stereo unspecified) | -12.2 |
| COCCN1CCCC2(CCN(c3cc(C)c(C#N)c(C)n3)C2)C1=O (stereo unspecified) | 14.9 |
| Cc1occc1C(=O)N1CCC2(CCCN(c3ncc(F)cn3)C2)C1 (stereo unspecified) | -1.51 |
